Results on 9 molecules are retold here after ChEMBL document CHEMBL5385881, “Design, synthesis, and discovery of Eudistomin Y derivatives as lysosome-targeted antiproliferation agents” (Eur J Med Chem, 2023).

Data set [1] has as its system MDA-MB-231. The data set can be described thus: Cytotoxicity against human MDA-MB-231 cells assessed as cell inhibition measured after 72 hrs by MTT assay. It counts as functional, cell-based. The settings on record: MDA-MB-231, 72 h. On the technique in general: Tetrazolium dyes change colour on reduction, which living cells bring about.
The subject of data set [2] is SGC-7901. The data set can be described thus: Cytotoxicity against human SGC-7901 cells assessed as cell inhibition measured after 72 hrs by MTT assay. It counts as functional, cell-based. The settings on record: SGC-7901, 72 h.
Data set [3] relates to HepG2. Put plainly: Cytotoxicity against human HepG2 cells assessed as cell inhibition measured after 72 hrs by MTT assay. The settings on record: HepG2, 72 h. In kind it is functional, cell-based.
The subject of data set [4] is LS180. Put plainly: Cytotoxicity against human LS180 cells assessed as cell inhibition measured after 72 hrs by MTT assay. In kind it is functional, cell-based. To be noted: LS180, 72 h.
Data set [5] has as its system A549. Put plainly: Cytotoxicity against human A549 cells assessed as cell inhibition measured after 72 hrs by MTT assay. To be noted: A549, 72 h. In kind it is functional, cell-based.
Data set [6] in a line: Drug uptake in human MDA-MB-231 cells assessed as accumulation by measuring lysosome-specific fluorescent signals in presence of excess H1 at 1 uM incubated for 1 hrs by confocal laser-scanning microscopic analysis. In kind it is ADME, cell-based. To be noted: mda-mb-231, 1 h.

As usually defined, the IC50 is the point on the concentration scale where inhibition reaches its midpoint. `Cc1cccc(Cn2c3ccccc3c3ccnc(C(=O)c4ccccc4)c32)c1`: the IC50 was 56.5 µM in data set [1]; 25.4 µM in data set [2]; 31.8 µM in data set [3]; 19 µM in data set [4]; 33.6 µM in data set [5].
Taken in the same sequence, the figures for `Cn1c2ccccc2c2ccnc(C(=O)c3ccc(OCc4ccccc4)cc3)c21` were 19.8 µM, 40.2 µM, 62.4 µM, 33.6 µM and 34.2 µM.
As to `O=C(c1ccccc1)c1nccc2c3ccccc3n(Cc3cccc(F)c3)c12`, the IC50 turned out to be 33.5 µM in data set [1]; 28.1 µM in data set [2]; 28.4 µM in data set [3]; 20 µM in data set [4]; 31.6 µM in data set [5]. Moreover, the Drug uptake entry in data set [6] is on record as “Not Active”.
Regarding `O=C(c1ccc(O)cc1)c1nccc2c1[nH]c1ccccc12` [EUDISTOMIN Y1], the half-maximal inhibitory concentration (IC50) in data set [1] is 129 µM; in data set [2], 119 µM; in data set [3] it was 126 µM; in data set [4], 89.8 µM; in data set [5], 71.9 µM.
As for `O=C(c1ccccc1)c1nccc2c1[nH]c1ccccc12`, the IC50 came to 66.1 µM in data set [1]; 345 µM in data set [2]; 244 µM in data set [3]; 258 µM in data set [4]; 74.3 µM in data set [5].
For `O=C(c1ccc(OCc2ccccc2)cc1)c1nccc2c1[nH]c1ccccc12` the same measures were 11.2 µM, 55.1 µM, 203 µM, 20.7 µM and 15.6 µM.
In the case of `Cc1cccc(Cn2c3ccccc3c3ccnc(C(=O)c4ccc(O)cc4)c32)c1`, the IC50 in data set [1] is 65.6 µM; in data set [2], 27.5 µM; in data set [3], 38.8 µM; in data set [4] it was 25.5 µM; in data set [5], 26.8 µM.
Consider `O=C(c1ccccc1)c1nccc2c3ccccc3n(Cc3ccc([N+](=O)[O-])cc3)c12`, for which the IC50 was determined as 31.4 µM in data set [1]; 7.1 µM in data set [2]; 18.7 µM in data set [3]; 4.4 µM in data set [4]; 10.2 µM in data set [5].
Regarding `O=c1[nH]cc(F)c(=O)[nH]1` [FLUOROURACIL], the IC50 in data set [1] turned out to be 67.5 µM; in data set [2] it was 13.1 µM; in data set [4], 3.4 µM; in data set [5], 1.3 µM.
